Experimental data taken from ChEMBL document CHEMBL4732085, “Di-aryl guanidinium derivatives: Towards improved α2-Adrenergic affinity and antagonist activity” (Eur J Med Chem, 2021).

Key:
[1] = biological target: T1, Adrenergic receptor alpha-2 (Homo sapiens, UniProt P08913+P18825+P18089); assay: Displacement of [3H]-RX821002 from adrenergic alpha 2 receptor in human brain membrane by liquid scintillation spectroscopy; type: cell membranes
T1 sequence (P08913 whole entry): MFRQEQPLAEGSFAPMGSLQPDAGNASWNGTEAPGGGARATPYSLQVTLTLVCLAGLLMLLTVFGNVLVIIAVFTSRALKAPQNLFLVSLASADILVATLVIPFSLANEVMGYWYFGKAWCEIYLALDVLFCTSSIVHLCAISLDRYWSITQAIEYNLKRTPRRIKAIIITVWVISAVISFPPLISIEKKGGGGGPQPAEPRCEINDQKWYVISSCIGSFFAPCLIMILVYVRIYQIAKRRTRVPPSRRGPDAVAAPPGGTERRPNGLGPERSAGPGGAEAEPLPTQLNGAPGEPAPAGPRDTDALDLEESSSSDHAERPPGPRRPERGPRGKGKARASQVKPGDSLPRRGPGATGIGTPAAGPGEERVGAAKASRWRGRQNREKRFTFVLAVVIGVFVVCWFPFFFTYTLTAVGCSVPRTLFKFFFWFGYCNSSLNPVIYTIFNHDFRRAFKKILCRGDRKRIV
T1 sequence (P18825 whole entry): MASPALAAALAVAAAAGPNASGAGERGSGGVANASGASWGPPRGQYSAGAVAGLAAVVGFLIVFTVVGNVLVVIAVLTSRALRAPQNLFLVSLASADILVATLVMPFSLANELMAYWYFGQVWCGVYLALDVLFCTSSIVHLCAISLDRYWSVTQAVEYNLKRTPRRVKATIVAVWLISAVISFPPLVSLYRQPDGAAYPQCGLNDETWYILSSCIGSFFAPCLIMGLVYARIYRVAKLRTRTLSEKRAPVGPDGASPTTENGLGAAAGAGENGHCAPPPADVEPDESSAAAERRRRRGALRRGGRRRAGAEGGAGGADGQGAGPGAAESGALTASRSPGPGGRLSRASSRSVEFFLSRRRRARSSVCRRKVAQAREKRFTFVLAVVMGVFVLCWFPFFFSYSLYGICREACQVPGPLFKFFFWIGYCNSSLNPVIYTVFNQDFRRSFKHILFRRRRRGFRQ
T1 sequence (P18089 whole entry): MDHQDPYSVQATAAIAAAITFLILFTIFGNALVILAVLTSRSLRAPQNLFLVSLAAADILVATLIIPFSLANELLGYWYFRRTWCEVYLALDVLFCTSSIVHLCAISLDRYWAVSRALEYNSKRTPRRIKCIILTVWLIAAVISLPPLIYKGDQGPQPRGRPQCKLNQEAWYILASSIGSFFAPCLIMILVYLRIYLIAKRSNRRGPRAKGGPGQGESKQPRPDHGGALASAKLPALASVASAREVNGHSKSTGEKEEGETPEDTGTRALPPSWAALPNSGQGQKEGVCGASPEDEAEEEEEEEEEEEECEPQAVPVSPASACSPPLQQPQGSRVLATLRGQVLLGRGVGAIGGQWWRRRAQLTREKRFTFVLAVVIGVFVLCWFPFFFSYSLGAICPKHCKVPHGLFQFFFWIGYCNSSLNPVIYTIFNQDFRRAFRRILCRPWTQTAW

[2] = biological target: T2, Adrenergic receptor alpha-2 (Homo sapiens) (UniProt P08913+P18825+P18089); assay: Antagonist activity at adrenergic alpha 2 receptor in human brain membrane assessed as inhibition of UK14304-induced stimulation of [35S]GTPgammaS binding at 10 uM by liquid scintillation spectroscopy (reference value: 153 +/- 4%); type: functional, cell membranes; conditions: filed as antagonist
[3] = biological target: T2, Adrenergic receptor alpha-2 (Homo sapiens); assay: Agonist activity at adrenergic alpha 2 receptor in human brain membrane assessed as stimulation of [35S]GTPgammaS binding at 10 uM by liquid scintillation spectroscopy relative to control; type: functional, cell membranes; conditions: filed as agonist
[4] = biological target: T1, Adrenergic receptor alpha-2; assay: Agonist activity at adrenergic alpha 2 receptor in human brain membrane assessed as stimulation of [35S]GTPgammaS binding by liquid scintillation spectroscopy; type: functional, cell membranes
[5] = biological target: T1, Adrenergic receptor alpha-2; assay: Antagonist activity at adrenergic alpha 2 receptor in human brain membrane assessed as inhibition of UK14304-induced stimulation of [35S]GTPgammaS binding by liquid scintillation spectroscopy (reference value: 1.77 +/- […]); type: functional, cell membranes
[6] = biological target: T2, Adrenergic receptor alpha-2 (Homo sapiens); assay: Agonist activity at adrenergic alpha 2 receptor in human brain membrane assessed as stimulation of [35S]GTPgammaS binding at 10 uM in presence of adrenergic alpha 2 receptor antagonist RX821002 by liquid scintillation spectroscopy; type: functional, cell membranes; conditions: filed as agonist
[7] = biological target: T1, Adrenergic receptor alpha-2; assay: Agonist activity at adrenergic alpha 2 receptor in human brain membrane assessed as stimulation of [35S]GTPgammaS binding in presence of adrenergic alpha 2 receptor antagonist RX821002 by liquid scintillation spectroscopy; type: functional, cell membranes

SMILES | Ki [1] [µM] | Emax [2] [%] | EC50 [5] [µM] | other results
Cl.Cl.N=C(N)Nc1ccc(CCc2ccc(N=C3NCCN3)cc2)cc1 | 0.175 |  |  | 
Cl.Cl.N=C(NCCO)Nc1ccc(Cc2ccc(NC(=N)NCCO)cc2)cc1 | 2.485 |  |  | 
Cl.Cl.N=C(N)Nc1ccc(Cc2ccc(N=C3NCCN3)cc2)cc1 | 0.0123 | 110 | 20.2 | Emax [3]: 126%; EC50 [4]: 18 µM; Emax [6]: 122%; EC50 [7]: 64020 µM
Cl.Cl.N=C(N)Nc1ccc(Cc2ccc(NC3=NCCN3)cc2)cn1 | 0.0868 | 140 | 39.9 | 
Cl.Cl.N=C(NCc1ccco1)Nc1ccc(Cc2ccc(NC3=NCCN3)cc2)cc1 | 0.00177 | 155 | 11.6 | Emax [3]: 168%; EC50 [4]: 534 µM; Emax [6]: 130%; EC50 [7]: 2356 µM
CCCNC(=N)Nc1ccc(Cc2ccc(NC3=NCCN3)nc2)cc1.Cl.Cl | 0.12 | 139 | 4.14 | 
N=C(N)Nc1ccc2c(c1)CCCC2 | 0.0776 |  |  | 
N=C(N)NC1C=C2CCCCC2=CN1 (stereo unspecified) | 0.1659 |  |  | 
CCCNC(=N)Nc1ccc(CCc2ccc(NC3=NCCN3)cc2)cc1.Cl.Cl | 1.745 |  |  | 
Cl.Cl.N=C(NCc1ccco1)Nc1ccc(Cc2ccc(NC3=NCCN3)cc2)cn1 | 0.0339 | 96 | 52.3 | Emax [3]: 149%; EC50 [4]: 194 µM; Emax [6]: 154%; EC50 [7]: 252 µM
CCCNC(=N)Nc1ccc(Cc2ccc(NC3=NCCN3)cc2)cc1.Cl.Cl | 0.00082 | 171 | 30 | Emax [3]: 139%; EC50 [4]: 46 µM; Emax [6]: 110%; EC50 [7]: 487 µM
Cl.Cl.N=C(NCc1ccco1)Nc1ccc(Cc2ccc(NC(=N)NCc3ccco3)cc2)cc1 | 0.355 |  |  | 
CN(C)c1ccc(/N=C(/N)NCc2ccco2)cc1 | 0.2318 |  |  | 
COC1(C2=NCCN2)COc2ccccc2O1 (stereo unspecified) |  | 98 | 87.2 | 
Cl.Cl.N=C(N)Nc1ccc(Cc2ccc(NC3=NCCN3)nc2)cn1 | 0.138 |  |  | 
CCCNC(=N)Nc1ccc(Cc2ccc(NC3=NCCN3)nc2)cn1.Cl.Cl | 0.0899 | 127 | 10.2 | 
CCCNC(=N)Nc1ccc(Cc2ccc(NC(=N)NCCC)cc2)cc1.Cl.Cl | 0.742 |  |  | 
Cl.Cl.N=C(NCc1ccco1)Nc1ccc(CCc2ccc(NC3=NCCN3)cc2)cc1 | 0.418 |  |  | 
Cl.Cl.N=C(NCc1ccco1)Nc1ccc(Cc2ccc(NC3=NCCN3)nc2)cc1 | 0.433 |  |  | 
CCCNC(=N)Nc1ccc(Cc2ccc(NC3=NCCN3)cc2)cn1.Cl.Cl | 0.0676 | 122 | 30.8 | 
Cl.Cl.N=C(N)Nc1ccc(Cc2ccc(NC3=NCCN3)nc2)cc1 | 0.674 |  |  | 
c1cc2c(cc1NC1=NCCN1)CCCC2 | 0.0468 |  |  | 
Cl.Cl.N=C(NCc1ccco1)Nc1ccc(Cc2ccc(NC3=NCCN3)nc2)cn1 | 0.263 |  |  | 
